Reference: the NIST ThermoML archive (doi:10.1016/j.fluid.2014.09.014)

How the values were obtained:
[1] = xn = mol fraction of the nth substance listed; details: 101 kPa, Liquid, mechanical oscillator
[2] = refractive index (other wavelength) (dimensionless); xn = mol fraction of the nth substance listed; details: 101 kPa, Liquid, Standard Abbe refractometry
[3] = 298.15 K; 101.33 kPa; Liquid; mechanical oscillator
[4] = Boiling temperature at pressure P; details: Liquid, Ebulliometric method (Recirculating still)
[5] = refractive index (Na D-line) (dimensionless); details: 298.15 K; 101.33 kPa; Liquid; Standard Abbe refractometry

CC(C)O [propan-2-ol] + CC(C)OC(C)C
[1], x2 = 0
Details	mass density [kg/m3]
293.15 K	786.91
298.15 K	782.45
303.15 K	777.84
308.15 K	773.13
313.15 K	768.47
318.15 K	763.79

refractive index, [2], x2 = 0
Details	Wavelength=404.7 nm	Wavelength=435.8 nm	Wavelength=486.1 nm	Wavelength=546.1 nm	Wavelength=587.6 nm	Wavelength=589.3 nm	Wavelength=632.8 nm	Wavelength=644 nm	Wavelength=706.5 nm
293.5 K	1.3883	1.38525	1.38179	1.37892	1.37742	1.37736	1.37605	1.37574	1.37424
298.15 K	1.3861	1.38307	1.37963	1.37678	1.37527	1.37522	1.37392	1.37361	1.37214
303.15 K	1.38379	1.38078	1.37738	1.37453	1.37304	1.37299	1.3717	1.3714	1.36993
308.15 K	1.38152	1.37851	1.37512	1.3723	1.3708	1.37075	1.36946	1.36917	1.36772
313.15 K	1.37921	1.37624	1.37288	1.37005	1.36857	1.36852	1.36726	1.36696	1.36551
318.15 K	1.37691	1.37397	1.37061	1.36782	1.36635	1.36629	1.36502	1.36473	1.36329

CO [methanol]
Details	mass density [kg/m3]	refractive index
[3]	786.62	–
[5]	–	1.32666

[4]
Details	Boiling temperature at pressure P [°C]
26.55 kPa	33.76
29.52 kPa	36.0
32.46 kPa	37.94
35.65 kPa	39.93
37.8 kPa	41.19
40.63 kPa	42.76
43.23 kPa	44.12
44.63 kPa	44.83
48.35 kPa	46.62
51.4 kPa	48.00
53.97 kPa	49.11
56.89 kPa	50.32
59.55 kPa	51.38
62.25 kPa	52.41
64.9 kPa	53.39
67.5 kPa	54.32
70.07 kPa	55.21
72.95 kPa	56.17
75.66 kPa	57.1
78.35 kPa	57.90
81.05 kPa	58.72
83.76 kPa	59.52
86.46 kPa	60.30
96.35 kPa	63.00

CO [methanol] + CC(C)OC(C)C
[1], x1 = 1
Details	mass density [kg/m3]
293.15 K	791.62
298.15 K	786.62
303.15 K	781.54
308.15 K	776.5
313.15 K	771.53
318.15 K	766.6

refractive index, [2], x1 = 1
Details	Wavelength=40.47 nm	Wavelength=435.8 nm	Wavelength=486.1 nm	Wavelength=546.1 nm	Wavelength=587.6 nm	Wavelength=589.3 nm	Wavelength=632.8 nm	Wavelength=644 nm	Wavelength=706.5 nm
293.15 K	1.33767	1.3353	1.3324	1.32991	1.32869	1.32864	1.32754	1.3273	1.3261
298.15 K	1.33564	1.3333	1.3304	1.328	1.32671	1.32666	1.32558	1.32535	1.32415
303.15 K	1.33357	1.33126	1.32839	1.32597	1.32471	1.32467	1.3236	1.32336	1.32219
308.15 K	1.33153	1.32926	1.32637	1.32397	1.32274	1.32269	1.32163	1.32138	1.32021
313.15 K	1.32947	1.32722	1.32434	1.32196	1.32073	1.32068	1.31965	1.31942	1.31825
318.15 K	1.32742	1.32518	1.32234	1.31993	1.31874	1.3187	1.31768	1.31744	1.31631

CC(C)O [propan-2-ol]
Details	mass density [kg/m3]	refractive index
[3]	782.45	–
[5]	–	1.37522

[4]
Details	Boiling temperature at pressure P [°C]
14.02 kPa	39.48
16.09 kPa	42.07
18.94 kPa	45.20
21.65 kPa	47.82
24.56 kPa	50.31
26.99 kPa	52.21
29.69 kPa	54.2
32.53 kPa	56.04
36.08 kPa	58.20
38.28 kPa	59.5
40.49 kPa	60.7
43.63 kPa	62.27
45.88 kPa	63.37
48.77 kPa	64.71
51.47 kPa	65.91
54.24 kPa	67.08
56.82 kPa	68.12
59.59 kPa	69.20
62.14 kPa	70.2
65.69 kPa	71.43
67.6 kPa	72.09
70.27 kPa	72.98
73.16 kPa	73.93
75.65 kPa	74.72
78.35 kPa	75.6
81.05 kPa	76.36
83.8 kPa	77.16
86.4 kPa	77.90
96.28 kPa	80.54

CC(C)OC(C)C [diisopropyl ether]
Details	mass density [kg/m3]	refractive index
[3]	718.3	–
[5]	–	1.3653
